Source: article PMC6736730 (Biochemistry, 2019)

What was measured:
[1] = target: T1, msAPAH (Marinobacter subterrani, UniProt A0A0J7JFD7); test: Hydrolysis of acetyllysine substrates; assay type: biochemical; details: acetyllysine (Aly) and MSH2-based peptide substrates; LC-MS assay
[2] = target: T1, msAPAH; test: Isothermal titration calorimetry; assay type: binding; details: ITC, 25 °C; inhibitor 7 with 5% (v/v) DMSO
[3] = target: T1, msAPAH; test: Inhibitory activity measurements; assay type: biochemical
[4] = target: T1, msAPAH; test: Steady-state kinetics of acetylpolyamine hydrolysis; assay type: biochemical; details: 25° C, pH 7.75, triplicate; N^8-acetylspermidine value at 0 mM KCl

Row | Compound | dissociation constant / enthalpogram fit (in words) [2] | IC50 [3] | Km [4] | also measured
1 | CC(=O)NCCCC[C@H](N)C(N)=O [Aly-NH2] | – | – | – | catalytic activity for hydrolysis [1]: No significant catalytic activity
2 | NCCCNCCCCCS [Inhibitor 3, 5-[(3-aminopropyl)amino]pentane-1-thiol] | nanomolar dissociation constant | 160 µM | – | –
3 | NCCCCCC(=O)NO [Inhibitor 4, 6-amino-N-hydroxyhexanamide] | – | 410 µM | – | –
4 | NCCCCCCCC(=O)NO [Inhibitor 5, 8-amino-N-hydroxyoctanamide] | – | 380 µM | – | –
5 | NCCCNCCCCCC(=O)NO [Inhibitor 6, 6-[(3-aminopropyl)amino]-N-hydroxyhexanamide] | micromolar dissociation constants | 470 µM | – | –
6 | CN(C)c1ccc(C(=O)NCCCCCCC(=O)NO)cc1 [Inhibitor 7, reference compound] | could not be fit to binding curves | – | – | –
7 | CC(=O)NCCCCCN [acetylcadaverine] | – | – | 800 ± 300 µM | –
8 | CC(=O)NCCCCN [acetylputrescine] | – | – | 44 ± 10 µM | –
9 | CC(=O)NCCCNCCCCNCCCN [acetylspermine] | – | – | 1300 ± 600 µM | –
